Among the data in patent publication US10479819B2 (priority 2014, dated 2019) are GLP-1R/GCGR values, retold here.

Starred links: 1 amine or outer side, 2 acyl side, 3 side chain; linkers in the order of their positions; H or OH if unused. Non-standard residues stand in square brackets, D forms with d. Residues, ends and D or L forms follow the SMILES beside them. Groups on a side chain read outwards from the residue. *: point of attachment. C18 diacid = O=C(O)CCCCCCCCCCCCCCCCC(=O)*; γGlu = O=C(O)[C@H](CCC(=O)[*:2])N[*:1]; PEG2 = NCCOCCOCCC(=O)O; Aib = CC(C)(N)C(=O)O

This assay deals with T1, human GLP-1R (Homo sapiens, UniProt P43220).
T1 construct: expressed in transfected cells
T1 sequence (P43220 24-463): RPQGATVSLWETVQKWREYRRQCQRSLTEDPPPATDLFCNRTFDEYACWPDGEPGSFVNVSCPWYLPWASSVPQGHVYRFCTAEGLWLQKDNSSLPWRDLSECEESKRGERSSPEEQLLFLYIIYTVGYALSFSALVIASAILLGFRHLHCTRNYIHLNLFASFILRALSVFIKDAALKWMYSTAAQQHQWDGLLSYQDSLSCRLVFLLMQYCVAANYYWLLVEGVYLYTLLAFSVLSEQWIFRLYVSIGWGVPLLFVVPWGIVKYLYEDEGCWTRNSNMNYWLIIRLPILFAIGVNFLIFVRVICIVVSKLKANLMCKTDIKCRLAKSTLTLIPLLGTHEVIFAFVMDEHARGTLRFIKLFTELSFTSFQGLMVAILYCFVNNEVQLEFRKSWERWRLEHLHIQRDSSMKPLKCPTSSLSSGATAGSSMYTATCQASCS
The assay is described as follows: In vitro activity on GLP-1R, CRE-luciferase HEK-293 cells. Particulars: ratio of EC50 GLP-1R to EC50 GCGR. In kind it is cell-based. Here is the method:
5000 of HEK-293 cells, which are used in CRE-luciferase system and express human GCGR or GLP-1R stably, were inoculated into 384 well plates according to […] DMEM/10% FBS media/well. […] After incubation, […] of luciferase reagent was added directly to each plate and mixed gently for 2 minutes. The plates were placed into an Elmer Perkin plate reader for reading. Concentration curve of the compound was made by drawing software Prism 5, and the EC50 value was calculated.
Regarding `CC(C)C[C@H](NC(=O)[C@H](CC(C)C)NC(=O)[C@H](Cc1c[nH]c2ccccc12)NC(=O)[C@H](CCC(=O)O)NC(=O)[C@@H](NC(=O)[C@H](Cc1ccccc1)NC(=O)[C@H](CC(=O)O)NC(=O)[C@H](Cc1c[nH]cn1)NC(=O)[C@H](C)NC(=O)[C@H](C)NC(=O)[C@H](CCCCNC(=O)CCOCCOCCNC(=O)CCOCCOCCNC(=O)CC[C@H](NC(=O)CCCCCCCCCCCCCCCCC(=O)O)C(=O)O)NC(=O)[C@H](CO)NC(=O)[C@H](CC(=O)O)NC(=O)[C@H](CC(C)C)NC(=O)[C@H](Cc1ccc(O)cc1)NC(=O)[C@H](CCCCN)NC(=O)[C@H](CO)NC(=O)[C@H](Cc1ccc(O)cc1)NC(=O)[C@H](CC(=O)O)NC(=O)[C@H](CO)NC(=O)[C@@H](NC(=O)[C@H](Cc1ccccc1)NC(=O)[C@@H](NC(=O)CNC(=O)[C@H](CCC(N)=O)NC(=O)[C@@H](CO)NC(=O)[C@@H](N)Cc1c[nH]cn1)[C@@H](C)O)[C@@H](C)O)C(C)C)C(=O)N[C@@H](CCCNC(=N)N)C(=O)N[C@@H](C)C(N)=O` [Compound 1], the GLP-1R/GCGR turned out to be 0.4. Next, `CC[C@H](C)[C@H](NC(=O)[C@H](Cc1ccccc1)NC(=O)[C@H](CCC(=O)O)NC(=O)[C@H](CCCCNC(=O)CCOCCOCCNC(=O)CCOCCOCCNC(=O)CC[C@H](NC(=O)CCCCCCCCCCCCCCCCC(=O)O)C(=O)O)NC(=O)[C@H](C)NC(=O)[C@H](C)NC(=O)[C@H](CCCCN)NC(=O)[C@H](CCC(=O)O)NC(=O)[C@H](CC(=O)O)NC(=O)[C@H](CC(C)C)NC(=O)[C@H](Cc1ccc(O)cc1)NC(=O)[C@H](CCCCN)NC(=O)[C@H](CO)NC(=O)[C@H](Cc1ccc(O)cc1)NC(=O)[C@H](CC(=O)O)NC(=O)[C@H](CO)NC(=O)[C@@H](NC(=O)[C@H](Cc1ccccc1)NC(=O)[C@@H](NC(=O)CNC(=O)[C@H](CCC(N)=O)NC(=O)[C@@H](CO)NC(=O)[C@@H](N)Cc1c[nH]cn1)[C@@H](C)O)[C@@H](C)O)C(=O)N[C@@H](CCC(=O)O)C(=O)N[C@@H](Cc1c[nH]c2ccccc12)C(=O)N[C@@H](CC(C)C)C(=O)N[C@@H](CC(C)C)C(=O)N[C@@H](CCCNC(=N)N)C(=O)N[C@@H](C)C(N)=O` [Compound 2] (H-H[dS]QGTFTSDYSKYLDEKAAK([PEG2-PEG2-γGlu-C18 diacid])EFIEWLLRA-NH2): 0.1; `CC(C)C[C@H](NC(=O)[C@H](CC(C)C)NC(=O)[C@H](Cc1c[nH]c2ccccc12)NC(=O)[C@H](CCC(=O)O)NC(=O)[C@@H](NC(=O)[C@H](Cc1ccccc1)NC(=O)[C@H](CC(=O)O)NC(=O)[C@H](Cc1c[nH]cn1)NC(=O)[C@H](C)NC(=O)[C@H](C)NC(=O)[C@H](CCCCNC(=O)CCOCCOCCNC(=O)CCOCCOCCNC(=O)CC[C@H](NC(=O)CCCCCCCCCCCCCCCCC(=O)O)C(=O)O)NC(=O)[C@H](CO)NC(=O)[C@H](CC(=O)O)NC(=O)[C@H](CC(C)C)NC(=O)[C@H](Cc1ccc(O)cc1)NC(=O)[C@H](CCCCN)NC(=O)[C@H](CO)NC(=O)[C@H](Cc1ccc(O)cc1)NC(=O)[C@H](CC(=O)O)NC(=O)[C@H](CO)NC(=O)[C@@H](NC(=O)[C@H](Cc1ccccc1)NC(=O)[C@@H](NC(=O)CNC(=O)[C@H](CCC(N)=O)NC(=O)[C@@H](CO)NC(=O)[C@@H](N)Cc1c[nH]cn1)[C@@H](C)O)[C@@H](C)O)C(C)C)C(=O)N[C@@H](CC(N)=O)C(=O)NCC(=O)NCC(=O)N1CCC[C@H]1C(=O)N[C@@H](CO)C(=O)N[C@@H](CO)C(=O)NCC(=O)N[C@@H](C)C(=O)N1CCC[C@H]1C(=O)N1CCC[C@H]1C(=O)N1CCC[C@H]1C(=O)N[C@@H](CO)C(N)=O` [Compound 3]: 0.6. The figure for `CCCCCCCCCCCCCCCC(=O)N[C@@H](CCC(=O)NCCOCCOCCC(=O)NCCOCCOCCC(=O)NCCCC[C@H](NC(=O)[C@H](CC(=O)O)NC(=O)[C@H](CC(C)C)NC(=O)[C@H](Cc1ccc(O)cc1)NC(=O)[C@H](CCCCN)NC(=O)[C@H](CO)NC(=O)[C@H](Cc1ccc(O)cc1)NC(=O)[C@H](CC(=O)O)NC(=O)[C@H](CO)NC(=O)[C@@H](NC(=O)[C@H](Cc1ccccc1)NC(=O)[C@@H](NC(=O)CNC(=O)[C@H](CCC(N)=O)NC(=O)[C@@H](CO)NC(=O)[C@@H](N)Cc1c[nH]cn1)[C@@H](C)O)[C@@H](C)O)C(=O)N[C@@H](CCCNC(=N)N)C(=O)N[C@@H](CCCNC(=N)N)C(=O)N[C@@H](C)C(=O)N[C@@H](CCC(N)=O)C(=O)N[C@@H](CC(=O)O)C(=O)N[C@@H](Cc1ccccc1)C(=O)N[C@H](C(=O)N[C@@H](CCC(N)=O)C(=O)N[C@@H](Cc1c[nH]c2ccccc12)C(=O)N[C@@H](CC(C)C)C(=O)N[C@@H](CCSC)C(=O)N[C@@H](CC(N)=O)C(=O)N[C@H](C(=O)NCC(=O)NCC(=O)N1CCC[C@H]1C(=O)N[C@@H](CO)C(=O)N[C@@H](CO)C(=O)NCC(=O)N[C@@H](C)C(=O)N1CCC[C@H]1C(=O)N1CCC[C@H]1C(=O)N1CCC[C@H]1C(=O)N[C@@H](CO)C(N)=O)[C@@H](C)O)C(C)C)C(=O)O` [Compound 10] is 3.3; for `CSCC[C@H](NC(=O)[C@H](CC(C)C)NC(=O)[C@H](Cc1c[nH]c2ccccc12)NC(=O)[C@H](CCC(N)=O)NC(=O)[C@@H](NC(=O)[C@H](Cc1ccccc1)NC(=O)[C@H](CC(=O)O)NC(=O)[C@H](CCC(N)=O)NC(=O)[C@H](C)NC(=O)[C@H](CCCNC(=N)N)NC(=O)[C@H](CCCCNC(=O)CCOCCOCCNC(=O)CCOCCOCCNC(=O)CCCCCCCCCCCCCCCCC(=O)O)NC(=O)C(C)(C)NC(=O)[C@H](CC(=O)O)NC(=O)[C@H](CC(C)C)NC(=O)[C@H](Cc1ccc(O)cc1)NC(=O)[C@H](CCCCN)NC(=O)[C@H](CO)NC(=O)[C@H](Cc1ccc(O)cc1)NC(=O)[C@H](CC(=O)O)NC(=O)[C@H](CO)NC(=O)[C@@H](NC(=O)[C@H](Cc1ccccc1)NC(=O)[C@@H](NC(=O)CNC(=O)[C@H](CCC(N)=O)NC(=O)[C@@H](CO)NC(=O)[C@@H](N)Cc1c[nH]cn1)[C@@H](C)O)[C@@H](C)O)C(C)C)C(=O)N[C@@H](CC(N)=O)C(=O)N[C@H](C(=O)NCC(=O)NCC(=O)N1CCC[C@H]1C(=O)N[C@@H](CO)C(=O)N[C@@H](CO)C(=O)NCC(=O)N[C@@H](C)C(=O)N1CCC[C@H]1C(=O)N1CCC[C@H]1C(=O)N1CCC[C@H]1C(=O)N[C@@H](CO)C(N)=O)[C@@H](C)O` [Compound 12] (H-H[dS]QGTFTSDYSKYLD[Aib]K([PEG2-PEG2-C18 diacid])RAQDFVQWLMNTGGPSSGAPPPS-NH2; N-terminus assumed) it is 2.1; for `CCCCCCCCCCCCCCCC(=O)N[C@@H](CCC(=O)NCCOCCOCCC(=O)NCCOCCOCCC(=O)NCCCC[C@H](NC(=O)C(C)(C)NC(=O)[C@H](CC(=O)O)NC(=O)[C@H](CC(C)C)NC(=O)[C@H](Cc1ccc(O)cc1)NC(=O)[C@H](CCCCN)NC(=O)[C@H](CO)NC(=O)[C@H](Cc1ccc(O)cc1)NC(=O)[C@H](CC(=O)O)NC(=O)[C@H](CO)NC(=O)[C@@H](NC(=O)[C@H](Cc1ccccc1)NC(=O)[C@@H](NC(=O)CNC(=O)[C@H](CCC(N)=O)NC(=O)[C@@H](CO)NC(=O)[C@@H](N)Cc1c[nH]cn1)[C@@H](C)O)[C@@H](C)O)C(=O)N[C@@H](CCCNC(=N)N)C(=O)N[C@@H](C)C(=O)N[C@@H](CCC(N)=O)C(=O)N[C@@H](CC(=O)O)C(=O)N[C@@H](Cc1ccccc1)C(=O)N[C@H](C(=O)N[C@@H](CCC(N)=O)C(=O)N[C@@H](Cc1c[nH]c2ccccc12)C(=O)N[C@@H](CC(C)C)C(=O)N[C@@H](CCSC)C(=O)N[C@@H](CC(N)=O)C(=O)N[C@H](C(=O)NCC(=O)NCC(=O)N1CCC[C@H]1C(=O)N[C@@H](CO)C(=O)N[C@@H](CO)C(=O)NCC(=O)N[C@@H](C)C(=O)N1CCC[C@H]1C(=O)N1CCC[C@H]1C(=O)N1CCC[C@H]1C(=O)N[C@@H](CO)C(N)=O)[C@@H](C)O)C(C)C)C(=O)O` [Compound 13] it is 2.8. For the molecule `CSCC[C@H](NC(=O)[C@H](CC(C)C)NC(=O)[C@H](Cc1c[nH]c2ccccc12)NC(=O)[C@H](CCC(N)=O)NC(=O)[C@@H](NC(=O)[C@H](Cc1ccccc1)NC(=O)[C@H](CC(=O)O)NC(=O)[C@H](CCC(N)=O)NC(=O)[C@H](C)NC(=O)[C@H](CCCNC(=N)N)NC(=O)[C@H](CCCCNC(=O)CCOCCOCCNC(=O)CCOCCOCCNC(=O)CC[C@H](NC(=O)CCCCCCCCCCCCCCCCC(=O)O)C(=O)O)NC(=O)C(C)(C)NC(=O)[C@H](CC(=O)O)NC(=O)[C@H](CC(C)C)NC(=O)[C@H](Cc1ccc(O)cc1)NC(=O)[C@H](CCCCN)NC(=O)[C@H](CO)NC(=O)[C@H](Cc1ccc(O)cc1)NC(=O)[C@H](CC(=O)O)NC(=O)[C@H](CO)NC(=O)[C@@H](NC(=O)[C@H](Cc1ccccc1)NC(=O)[C@@H](NC(=O)CNC(=O)[C@H](CCC(N)=O)NC(=O)[C@@H](CO)NC(=O)[C@@H](N)Cc1c[nH]cn1)[C@@H](C)O)[C@@H](C)O)C(C)C)C(=O)N[C@@H](CC(N)=O)C(=O)N[C@H](C(=O)NCC(=O)NCC(=O)N1CCC[C@H]1C(=O)N[C@@H](CO)C(=O)N[C@@H](CO)C(=O)NCC(=O)N[C@@H](C)C(=O)N1CCC[C@H]1C(=O)N1CCC[C@H]1C(=O)N1CCC[C@H]1C(=O)N[C@@H](CO)C(N)=O)[C@@H](C)O` [Compound 14], the GLP-1R/GCGR amounted to 2.1. The figure for `CCCCCCCCCCCCCCCC(=O)NCCOCCOCCC(=O)NCCOCCOCCC(=O)NCCCC[C@H](NC(=O)[C@H](CO)NC(=O)[C@H](Cc1ccc(O)cc1)NC(=O)[C@H](CC(=O)O)NC(=O)[C@H](CO)NC(=O)[C@@H](NC(=O)[C@H](Cc1ccccc1)NC(=O)[C@@H](NC(=O)CNC(=O)[C@H](CCC(N)=O)NC(=O)[C@@H](CO)NC(=O)[C@@H](N)Cc1c[nH]cn1)[C@@H](C)O)[C@@H](C)O)C(=O)N[C@@H](CCCCN)C(=O)N[C@@H](CC(C)C)C(=O)N[C@@H](CC(=O)O)C(=O)NC(C)(C)C(=O)N[C@@H](CCCNC(=N)N)C(=O)N[C@@H](CCCNC(=N)N)C(=O)N[C@@H](C)C(=O)N[C@@H](CCC(N)=O)C(=O)N[C@@H](CC(=O)O)C(=O)N[C@@H](Cc1ccccc1)C(=O)N[C@H](C(=O)N[C@@H](CCC(N)=O)C(=O)N[C@@H](Cc1c[nH]c2ccccc12)C(=O)N[C@@H](CC(C)C)C(=O)N[C@@H](CCSC)C(=O)N[C@@H](CC(N)=O)C(=O)N[C@H](C(=O)NCC(=O)NCC(=O)N1CCC[C@H]1C(=O)N[C@@H](CO)C(=O)N[C@@H](CO)C(=O)NCC(=O)N[C@@H](C)C(=O)N1CCC[C@H]1C(=O)N1CCC[C@H]1C(=O)N1CCC[C@H]1C(=O)N[C@@H](CO)C(N)=O)[C@@H](C)O)C(C)C` [Compound 15] is 2.5.
